The target of one experiment is T1, human FAAH (Homo sapiens, UniProt O00519).
T1 construct: made in house; host or cells: E. coli
T1 sequence (O00519 1-579): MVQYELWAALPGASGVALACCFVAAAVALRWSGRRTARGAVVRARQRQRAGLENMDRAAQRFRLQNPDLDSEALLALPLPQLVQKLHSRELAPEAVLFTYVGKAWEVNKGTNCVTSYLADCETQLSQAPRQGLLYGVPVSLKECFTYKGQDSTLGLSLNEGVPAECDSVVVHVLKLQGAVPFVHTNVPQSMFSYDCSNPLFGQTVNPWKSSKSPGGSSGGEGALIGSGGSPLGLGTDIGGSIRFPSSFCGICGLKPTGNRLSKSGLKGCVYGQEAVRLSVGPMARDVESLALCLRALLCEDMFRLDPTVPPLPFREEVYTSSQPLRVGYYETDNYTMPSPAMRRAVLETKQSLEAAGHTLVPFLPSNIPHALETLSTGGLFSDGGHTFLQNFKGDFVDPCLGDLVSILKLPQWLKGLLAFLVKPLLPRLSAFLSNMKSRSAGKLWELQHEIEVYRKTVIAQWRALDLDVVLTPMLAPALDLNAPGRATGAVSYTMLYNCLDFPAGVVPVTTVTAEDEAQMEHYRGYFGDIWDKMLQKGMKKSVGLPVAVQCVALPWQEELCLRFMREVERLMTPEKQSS
Kind of experiment: FAAH assay, human FAAH enzyme inhibition (kinact/Ki). The format is biochemical. The note with it: oleamide substrate 50 μM, 30° C., read-out: hFAAH kinact/Ki. As to the method: (§1) The FAAH assay was carried out in 384-well clear polystyrene plates (Evergreen Scientific) in a total volume of 50 μl per well in a manner similar to that described by Mileni et al., Proc. Nat. Acad. Sci. 2008, 105, 12820-12824. All percents are by volume. Serial dilutions of compound were initially prepared in 100% DMSO, and then diluted two-fold into HPLC-grade H2O to give 50% DMSO. To each well, was placed the reaction mixture (40 μl) containing 1-4 nM FAAH, 50 mM NaPi, pH 7.4, 3 mM α-ketoglutarate, 0.15 mM NADH, 7.5 U/ml glutamate dehydrogenase, 2 mM ADP, 1 mM EDTA, and 0.1% Triton X-100 (The concentration shown for each component is the final concentration in the assay). To this mixture, was added 5 μl of a compound of Examples 1 to 56 at various concentrations in 50% DMSO (or 5 μl 50% DMSO for controls). This was immediately followed by the addition of 5 μl oleamide (500 μM) dissolved in 75% EtOH/25% DMSO and the reaction mixture was mixed for 1.5 min. The final concentrations of DMSO and EtOH in the assay were each 7.5%. The reactions were incubated at 30° C. and the absorbance at 340 nm was collected over a period of 90 min with readings taken in 30-second intervals using SpectraMax Plus^384 Microplate Spectrophotometer (Molecular Devices, Sunnyvale, Calif.). The human FAAH and rat FAAH used in the assay was prepared as described in the patent application WO 2006/067613 using wild-type E. coli cells transformed in St. Louis, Mo., U.S.A. The purity of the enzyme was greater than 98% based on an analysis by SDS-polyacrylamide gel electrophoresis followed by Coomassie Blue staining.
(§2) Reaction progress curves were corrected for the non-enzymatic oxidation of NADH by subtraction of absorbancies at each time point obtained from control reactions containing no FAAH enzyme. The loss of enzyme activity as a function of time is well-described by the following mathematical equation (1) for a mono-exponential decay: […]
(§3) where At represents the absorbance at time t, A0 represents the absorbance at time zero, and C represents a constant. Observed rates of enzyme inactivation (kobs) were determined from the non-linear reaction progress curves by fitting the corrected absorbancies to an equation for a mono-exponential decay using the third-party Microsoft Excel plug-in, XLfit (IDBS Limited). Secondary plots of kobs vs. inhibitor concentration were prepared from kobs values obtained from progress curves. Second-order rates for enzyme inactivation, expressed as kinact/Ki (M^−1s^−1), were calculated from the slopes from linear regression analysis of the secondary plot of kobs vs. inhibitor concentration as defined in following equation (2), where [I]<<Ki:
(§4) The concentration of substrate in the assay was equal to the Km for oleamide of 50 μM. Therefore, reported kinact/Ki values are obtained by multiplying resulting slopes by a factor of two (i.e. slope=kinact/(Ki*2)).

For a further experiment, the target named is T2, rat FAAH (Rattus norvegicus, UniProt P97612).
T2 construct: made in house; host or cells: E. coli
T2 sequence (P97612 1-579): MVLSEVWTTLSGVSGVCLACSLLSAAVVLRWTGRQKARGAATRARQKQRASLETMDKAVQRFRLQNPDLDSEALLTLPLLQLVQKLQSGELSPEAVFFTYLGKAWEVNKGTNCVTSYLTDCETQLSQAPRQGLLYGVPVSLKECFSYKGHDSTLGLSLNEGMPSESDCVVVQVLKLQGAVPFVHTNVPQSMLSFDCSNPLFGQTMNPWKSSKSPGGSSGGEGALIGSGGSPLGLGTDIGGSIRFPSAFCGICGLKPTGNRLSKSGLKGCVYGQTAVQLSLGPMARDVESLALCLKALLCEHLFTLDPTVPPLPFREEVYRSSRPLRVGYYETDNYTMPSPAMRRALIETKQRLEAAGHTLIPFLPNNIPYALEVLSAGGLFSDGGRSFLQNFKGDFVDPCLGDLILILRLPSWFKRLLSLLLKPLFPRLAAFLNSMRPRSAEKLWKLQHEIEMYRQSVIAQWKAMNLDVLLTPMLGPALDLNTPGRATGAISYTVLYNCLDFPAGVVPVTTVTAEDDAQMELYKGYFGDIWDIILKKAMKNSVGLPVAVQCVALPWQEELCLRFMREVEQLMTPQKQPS
Kind of experiment: FAAH assay, rat FAAH enzyme inhibition (kinact/Ki). To be noted: oleamide substrate 50 μM, 30° C., read-out: rFAAH kinact/Ki. The format is biochemical. The protocol: as §1, §2, §3, §4

Another experiment deals with Male Sprague-Dawley Rats. Briefly: In vivo Complete Freund's Adjuvant (CFA) efficacy assay. To be noted: 3 mpk, oral dosing; inhibition of allodynia (PWT) four hours postdose vs vehicle, p<0.05. Also noted: species or system rat; key: (+) indicates the test compound was determined to be efficacious at 3 mpk, oral dosing; (−) indicates the test compound was determined to not be efficacious at 3 mpk, oral dosing. The protocol:
For additional information on the CFA efficacy assay, see Jayamanne et al., Brit. J. Pharmacol. 2006, 147, 281-288. Experiments were performed on adult Male Sprague-Dawley Rats (200 g-250 g). Inflammation was induced in the left hindpaw of the rat by an intra-plantar injection of 150 uL Complete Freund's Adjuvant (CFA) (SIGMA F5881). The CFA injection immediately induces local inflammation, paw swelling, and pain that persists for at least two weeks post-injection. Baseline paw withdrawal threshold (PWT) was measured to determine the percent inhibition of allodynia using a set of Von Frey Hairs on day 4 post injection as illustrated by the Dixon Up and Down Method (W. J. Dixon, Ann. Rev. Pharmacol. Toxicol. 1980, 20:441-462). […] Test compound was administered at a concentration of 3 mg/kg (mpk) orally with the dosing vehicle 5% N,N′-Dimethylacetamide (SIGMA D137510) and 95% (40% 2-hydroxypropyl-beta-cyclodextrin in water) (SIGMA H107). Following Dose administration PWT threshold was evaluated again at four hours postdose. The Sprague-Dawley rats used in this assay were purchased from Harlan, 8520 Allison Pointe Blvd., Indianapolis, Ind., 46250, U.S.A. Sprague-Dawley rats are an outbred breed of albino rats first produced by the Sprague Dawley farms in Madison, Wis., U.S.A.
Percent Inhibition of Allodynia was determined by the formula: […]
ΔPWT measurements were averaged for each treatment group and statistical comparisons between groups were made using ANOVA and Dunnett's two-tailed test. […]

As to `Cc1noc(NC(=O)N2CCC3(CC2)CC(c2noc(-c4ccc(OC(F)(F)F)cc4)n2)C3)c1C` [Example 15, N-(3,4-dimethylisoxazol-5-yl)-2-{5-[4-(trifluoromethoxy)phenyl]-1,2,4-oxadiazol-3-yl}-7-azaspiro[3.5]nonane-7-carboxamide], the results for the kinact/KI on human FAAH and at rat FAAH were 3460 M⁻¹ s⁻¹ and 1730 M⁻¹ s⁻¹, respectively. In addition, the “CFA Efficacy” value in the experiment with Male Sprague-Dawley Rats is recorded as “(+)”.

Take `Cc1cc(F)cc(C2CC3(CCN(C(=O)Nc4onc(C)c4C)CC3)C2)c1` [Example 18, N-(3,4-dimethylisoxazol-5-yl)-2-(3-fluoro-5-methylphenyl)-7-azaspiro[3.5]nonane-7-carboxamide]: the kinact/KI on human FAAH came out at 2640 M⁻¹ s⁻¹; on rat FAAH, 1560 M⁻¹ s⁻¹. Moreover, in the experiment on Male Sprague-Dawley Rats, the “CFA Efficacy” value is listed as “(−)”.

Consider `Cc1noc(NC(=O)N2CCC3(CC2)CC(c2cccc(F)c2F)C3)c1C` [Example 19, 2-(2,3-difluorophenyl)-N-(3,4-dimethylisoxazol-5-yl)-7-azaspiro[3.5]nonane-7-carboxamide], for which the kinact/KI at human FAAH was determined as 2350 M⁻¹ s⁻¹; on rat FAAH it was 1370 M⁻¹ s⁻¹. Besides, the “CFA Efficacy” value in the experiment with Male Sprague-Dawley Rats is reported as “(+)”.

Regarding `Cc1noc(NC(=O)N2CCC3(CC2)CC(c2ccc(Cl)c(Cl)c2)C3)c1C` [Example 20, 2-(3,4-dichlorophenyl)-N-(3,4-dimethylisoxazol-5-yl)-7-azaspiro[3.5]nonane-7-carboxamide], the kinact/KI at human FAAH was determined as 4550 M⁻¹ s⁻¹; at rat FAAH, 3470 M⁻¹ s⁻¹. Also, the “CFA Efficacy” value with Male Sprague-Dawley Rats was “(+)”.

As for `Cc1noc(NC(=O)N2CCC3(CC2)CC(c2cc(Cl)ccc2F)C3)c1C` [Example 21, 2-(5-chloro-2-fluorophenyl)-N-(3,4-dimethylisoxazol-5-yl)-7-azaspiro[3.5]nonane-7-carboxamide], the kinact/KI on human FAAH turned out to be 2700 M⁻¹ s⁻¹; on rat FAAH, 1510 M⁻¹ s⁻¹. Also, the “CFA Efficacy” value in the experiment with Male Sprague-Dawley Rats is “(+)”.

On to `CCc1cccc(C2CC3(CCN(C(=O)Nc4onc(C)c4C)CC3)C2)c1` [Example 22, N-(3,4-dimethylisoxazol-5-yl)-2-(3-ethylphenyl)-7-azaspiro[3.5]nonane-7-carboxamide], for which the kinact/KI at human FAAH came out at 5670 M⁻¹ s⁻¹; at rat FAAH, 1340 M⁻¹ s⁻¹. Moreover, the “CFA Efficacy” value in the experiment with Male Sprague-Dawley Rats is given as “(−)”.

Turning to `Cc1noc(NC(=O)N2CCC3(CC2)CC(F)(c2cccc(OC(F)(F)F)c2)C3)c1C` [Example 23, N-(3,4-dimethylisoxazol-5-yl)-2-fluoro-2-[3-(trifluoromethoxy)phenyl]-7-azaspiro[3.5]nonane-7-carboxamide], the kinact/KI at human FAAH was 2820 M⁻¹ s⁻¹; on rat FAAH, 1710 M⁻¹ s⁻¹. In addition, the “CFA Efficacy” value in the experiment with Male Sprague-Dawley Rats is “(+)”.

For `Cn1nnnc1NC(=O)N1CCC2(CC1)CC(c1cccc(C(F)(F)F)c1)C2` [Example 24, N-(1-methyl-1H-tetrazol-5-yl)-2-[3-(trifluoromethyl)phenyl]-7-azaspiro[3.5]nonane-7-carboxamide], the kinact/KI came out at 12400 M⁻¹ s⁻¹ on human FAAH and 5750 M⁻¹ s⁻¹ on rat FAAH. Further, the “CFA Efficacy” value in the experiment on Male Sprague-Dawley Rats is “(+)”.

On to `Cc1noc(NC(=O)N2CCC3(CC2)CC(c2cccc(OCCOc4ccc(Cl)cc4)c2)C3)c1C` [Example 25, 2-{3-[2-(4-chlorophenoxy)ethoxy]phenyl}-N-(3,4-dimethylisoxazol-5-yl)-7-azaspiro[3.5]nonane-7-carboxamide], for which the kinact/KI on human FAAH is 2860 M⁻¹ s⁻¹; on rat FAAH, 2340 M⁻¹ s⁻¹. For the same compound, the “CFA Efficacy” value with Male Sprague-Dawley Rats is “(+)”.

For `Cc1noc(NC(=O)N2CCC3(CC2)CC(c2cccc(OCCOc4ccccc4)c2)C3)c1C` [Example 26, N-(3,4-dimethylisoxazol-5-yl)-2-[3-(2-phenoxyethoxy)phenyl]-7-azaspiro[3.5]nonane-7-carboxamide], the kinact/KI worked out at 4480 M⁻¹ s⁻¹ at human FAAH and 1700 M⁻¹ s⁻¹ at rat FAAH. For the same compound, the “CFA Efficacy” value in the experiment with Male Sprague-Dawley Rats is on record as “(+)”.

`Cc1noc(NC(=O)N2CCC3(CC2)CC(c2cccc(OCCOc4ccccc4Cl)c2)C3)c1C` [Example 27, 2-{3-[2-(2-chlorophenoxy)ethoxy]phenyl}-N-(3,4-dimethylisoxazol-5-yl)-7-azaspiro[3.5]nonane-7-carboxamide]: the results for the kinact/KI at human FAAH and on rat FAAH were 2940 M⁻¹ s⁻¹ and 1810 M⁻¹ s⁻¹, respectively. For the same compound, the “CFA Efficacy” value in the experiment on Male Sprague-Dawley Rats is given as “(+)”.

Source of the values: patent US20100113465A1, “7-AZASPIRO[3.5]NONANE-7-CARBOXAMIDE COMPOUNDS” (Pfizer Inc., priority 2008, published 2010).
